Experiments:
L6-myotubes [1] = assay: Measurement of intracellular cAMP levels in differentiated L6-myotubes (Biological Example 3); assay type: cell-based; conditions: 0.25 h
How it was run: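 Intracellular cAMP quantified by AlphaScreen after ethanol extraction and lysis of L6 myotubes. Cells were serum-starved overnight, then exposed for 15 min to compound (final 1×10^−5 M) or isoprenaline in IBMX-containing (1 mM) HBSS buffer, pH 7.4.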

L6-myotubes [2] = assay: Glucose uptake in differentiated L6-myotubes (Biological Example 2); assay type: cell-based; conditions: read-out: Biological example 2 (GU)
How it was run: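 Uptake was quantified as radioactivity in 0.2 M NaOH lysates after a 10 min pulse of 50 nM ^3H-2-deoxyglucose. The pulse followed two agonist exposures at 1×10^−5 M final (isoprenaline or test compound): 1 h 40 min, then 20 min in glucose-free medium after washing. L6 myotubes had been starved overnight in medium with 0.5% fatty-acid-free BSA.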

[3] = intracellular cAMP, compound at 10 μM relative to isoproterenol at 10 μM
[4] = glucose uptake, compound at 10 μM relative to isoproterenol at 10 μM
[5] = intracellular cAMP in differentiated L6-myotubes, compound at 10 μM, activity relative to isoproterenol at 10 μM
[6] = glucose uptake in differentiated L6-myotubes, compound at 10 μM, activity relative to isoproterenol at 10 μM

SMILES	Emax at 10 µM (L6-myotubes [1]; [3])	Emax at 10 µM (L6-myotubes [2]; [4])	Emax at 10 µM (L6-myotubes [1]; [5])	Emax at 10 µM (L6-myotubes [2]; [6])
CCCCNCC(O)c1ccc(O)c(Cl)c1 (stereo not drawn) [Compound 20, 2-(butylamino)-1-(3-chloro-4-hydroxyphenyl)-1-ethanol]	< 25%	25 to 50%		
CC(C)(C[C@H]1CC[C@H](NS(C)(=O)=O)CC1)NC[C@H](O)c1cncc(F)c1 [Compound 360, (R)-2-{1,1-dimethyl-2-[(1r,4R)-4-(mesylamino)cyclohexyl]ethylamino}-1-(5-fluoro-3-pyridyl)-1-ethanol]			< 25%	> 75%
COCC12CCC([C@H](O)c3cccc(F)c3)(CC1)N2 [Compound 330, (R)-(m-fluorophenyl){4-(methoxymethyl)-7-azabicyclo[[2.2.1]]hept-1-yl}methanol]			< 25%	> 75%
CO[C@H]1CC[C@@H](CCNC[C@H](O)c2cccc(F)c2)CC1 [Compound 237, (R)-1-(m-fluorophenyl)-2-{2-[(1s,4S)-4-methoxycyclohexyl]ethylamino}-1-ethanol]			< 25%	50 to 75%
CC12CC(C1)[C@H]([C@@H](O)c1cccc(N)c1F)N2 [Compound 243, (S)-{(R)-1-methyl-2-azabicyclo[[2.1.1]]hex-3-yl}(3-amino-2-fluorophenyl)methanol]			< 25%	50 to 75%
O[C@H](c1cncc(F)c1)[C@H]1CC[C@@H](Cc2ccc(Cl)cc2)N1 [Compound 404, (R)-{(2R,5S)-5-[(p-chlorophenyl)methyl]-2-pyrrolidinyl}(5-fluoro-3-pyridyl)methanol]			< 25%	> 75%
CC12CCC([C@H](O)c3ccncc3F)(CC1)N2 [Compound 254, (R)-(3-fluoro-4-pyridyl)(4-methyl-7-azabicyclo[[2.2.1]]hept-1-yl)methanol]			< 25%	< 25%
CC(C)(C[C@H]1CC[C@H](NC(=O)OC(C)(C)C)CC1)NC[C@H](O)c1cccc(C(F)(F)F)n1 [Compound 459]			< 25%	> 75%
CCC[C@@H]1CCC[C@@H]([C@@H](O)c2cccc(Cl)c2)N1 [Compound 114]	< 25%	25 to 50%		
COCC12CCC([C@@H](O)c3cccc(F)c3)(CC1)N2 [Compound 329, (S)-(m-fluorophenyl){4-(methoxymethyl)-7-azabicyclo[[2.2.1]]hept-1-yl}methanol]			< 25%	25 to 50%
CC1(C)C[C@@H]([C@@H](O)c2cccc(Cl)c2)N1 [Compound 231]			< 25%	25 to 50%
CC(C)(C)NC[C@H](O)c1cncc(F)c1 [Compound 99, (R)-2-(tert-butylamino)-1-(5-fluoro-3-pyridyl)-1-ethanol]	25 to 50%	> 75%		
O[C@@H](CNC1(C(F)(F)F)CC1)c1cccc(F)c1 [Compound 118, (R)-1-(m-fluorophenyl)-2-[1-(trifluoromethyl)cyclopropylamino]-1-ethanol]	< 25%	50 to 75%		
CO[C@H]1CC[C@H](CCC(C)(C)NC[C@H](O)c2cccc(F)c2)CC1 [Compound 265, (R)-2-{1,1-dimethyl-3-[(1r,4S)-4-methoxycyclohexyl]propylamino}-1-(m-fluorophenyl)-1-ethanol]			< 25%	50 to 75%
CC(=O)N[C@H]1CC[C@H](CC(C)(C)NC[C@H](O)c2cccc(C#N)n2)CC1 [Compound 425]			25 to 50%	> 75%
Cc1ncccc1[C@@H](O)CNC(C)(C)C[C@H]1CC[C@H](NS(C)(=O)=O)CC1 [Compound 435, (R)-2-{1,1-dimethyl-2-[(1r,4R)-4-(mesylamino)cyclohexyl]ethylamino}-1-(2-methyl-3-pyridyl)-1-ethanol]			< 25%	25 to 50%
O[C@@H](c1cccc(F)c1)C12CCC(COCc3ccc(F)cc3)(CC1)N2 [Compound 438, (S)-(m-fluorophenyl)(4-{[(p-fluorophenyl)methoxy]methyl}-7-azabicyclo[[2.2.1]]hept-1-yl)methanol]			< 25%	< 25%
CC1(C)CC[C@@H]([C@@H](O)c2cccc(F)c2)N1 [Compound 145, (S)-[(S)-5,5-dimethyl-2-pyrrolidinyl](m-fluorophenyl)methanol]	< 25%	25 to 50%		
CC1(C)CCC[C@H]([C@H](O)c2cccc(F)c2)N1 [Compound 102]	< 25%	50 to 75%		
CCCCNC[C@H](O)c1ccc(O)cc1 [Compound 9, (R)-2-(butylamino)-1-(p-hydroxyphenyl)-1-ethanol]	< 25%	> 75%		

SMILES	Emax at 10 µM (L6-myotubes [1]; [3])	Emax at 10 µM (L6-myotubes [2]; [4])	Emax at 10 µM (L6-myotubes [1]; [5])	Emax at 10 µM (L6-myotubes [2]; [6])
CC(C)(C)NC[C@H](O)c1cccc(N)c1F [Compound 91, (R)-1-(3-amino-2-fluorophenyl)-2-(tert-butylamino)-1-ethanol]	25 to 50%	> 75%		
CO[C@H]1CC[C@@H](CC(C)(C)NC[C@H](O)c2cncc(F)c2)CC1 [Compound 248, (R)-2-{1,1-dimethyl-2-[(1s,4S)-4-methoxycyclohexyl]ethylamino}-1-(5-fluoro-3-pyridyl)-1-ethanol]			< 25%	> 75%
O[C@H](c1cccc(F)c1)C12CCC(CCc3ccc(Cl)cc3)(CC1)N2 [Compound 528, (R)-{4-[2-(p-chlorophenyl)ethyl]-7-azabicyclo[[2.2.1]]hept-1-yl}(m-fluorophenyl)methanol]			< 25%	< 25%
CCCCNCC(O)c1ccc(=O)[nH]c1 (stereo not drawn) [Compound 63, 5-[2-(butylamino)-1-hydroxyethyl]-2(1H)-pyridinone]	< 25%	25 to 50%		
COc1ccc(C[C@@]2(C)CC[C@H]([C@@H](O)c3cccc(F)c3)N2)cc1 [Compound 365, (S)-{(2R,5R)-5-[(p-methoxyphenyl)methyl]-5-methyl-2-pyrrolidinyl}(m-fluorophenyl)methanol]			< 25%	> 75%
CCC[C@H](C)NC[C@H](O)c1ccc(F)cc1 [Compound 53, (R)-2-[(S)-1-methylbutylamino]-1-(p-fluorophenyl)-1-ethanol]	< 25%	50 to 75%		
CCC[C@H]1CCCC[C@@H]([C@@H](O)c2cncc(F)c2)N1 [Compound 235, (S)-[(2S,7S)-7-propyl-2-azepanyl](5-fluoro-3-pyridyl)methanol]			< 25%	< 25%
CCC[C@@H]1CCC[C@H]([C@H](O)c2cccc(O)c2)N1 [Compound 45]	< 25%	> 75%		
CC(C)(C[C@H]1CC[C@@H](NC(=O)C2CCC2)CC1)NC[C@H](O)c1cccc(F)c1 [Compound 448]			< 25%	50 to 75%
CC(=O)N[C@H]1CC[C@H](C(C)(C)NC[C@H](O)c2cncc(F)c2)CC1 [Compound 346, N-[(1R,4r)-4-{1-[(R)-2-(5-fluoro-3-pyridyl)-2-hydroxyethylamino]-1-methylethyl}cyclohexyl] acetamide]			< 25%	> 75%
CC(C)(CC[C@H]1CC[C@H](O)CC1)NC[C@H](O)c1cccc(F)c1 [Compound 290, (R)-2-{1,1-dimethyl-3-[(1r,4S)-4-hydroxycyclohexyl]propylamino}-1-(m-fluorophenyl)-1-ethanol]			< 25%	25 to 50%
O[C@@H](c1cccc(F)c1)C12CCC(COCc3ccc(OC(F)(F)F)cc3)(CC1)N2 [Compound 487]			< 25%	< 25%
CC(C)(C[C@H]1CC[C@H](S(N)(=O)=O)CC1)NC[C@H](O)c1cncc(F)c1 [Compound 518, (1R,4r)-4-{2-[(R)-2-(5-fluoro-3-pyridyl)-2-hydroxyethylamino]-2-methylpropyl} cyclohexanesulfonamide]			< 25%	50 to 75%
CC(=O)N[C@H]1CC[C@@H](CC(C)(C)NC[C@H](O)c2cccnc2C)CC1 [Compound 436]			< 25%	50 to 75%
O[C@@H](CNCCC[C@H]1CC[C@@H](OCc2ccccc2)CC1)c1cccc(F)c1 [Compound 277, (R)-1-(m-fluorophenyl)-2-{3-[(1s,4R)-4-(benzyloxy)cyclohexyl]propylamino}-1-ethanol]			< 25%	25 to 50%
Oc1ccc(C(O)CNCC2CCCCC2)cc1 (stereo not drawn) [Compound 6, 2-[(cyclohexylmethyl)amino]-1-(p-hydroxyphenyl)-1-ethanol]	< 25%	> 75%		
CC(C)(C[C@H]1CC[C@@H](NC(=O)OC(C)(C)C)CC1)NC[C@H](O)c1cccc(C#N)n1 [Compound 414, (1R,4s)-4-{2-[(S)-2-(6-cyano-2-pyridyl)-2-hydroxyethylamino]-2-methylpropyl}cyclohexly 2-methyl-2-propanecarbamate]			< 25%	50 to 75%
CC(C)(C[C@H]1CC[C@H](S(N)(=O)=O)CC1)NC[C@H](O)c1cccc(F)c1 [Compound 516, (1R,4r)-4-{2-[(R)-2-(m-fluorophenyl)-2-hydroxyethylamino]-2-methylpropyl} cyclohexanesulfonamide]			< 25%	> 75%
O[C@@H](CNC[C@H]1CC[C@@H](OCc2ccccc2)CC1)c1cccc(F)c1 [Compound 262, (R)-1-(m-fluorophenyl)-2-({[(1s,4S)-4-(benzyloxy)cyclohexyl]methyl}amino)-1-ethanol]			< 25%	25 to 50%

— US20260216294A1, “BETA 2-ADRENERGIC RECEPTOR AGONISTS FOR TREATMENT OR PREVENTION OF MUSCLE WASTING” (ATROGI AB, priority 2023, published 2026)
